In patent EP2667887B1, “PHARMACEUTICAL COMPOSITION COMPRISING THE PEPTIDE GLU-ASP-GLY AND USE FOR TREATING HELICOBACTER PYLORI INDUCED GASTRODUODENAL DISEASES” («Garmonia», Ltd., priority 2011, dated 2012):

Assays:
[1] = tested on: gastric epithelial cell mitochondria; test: Mitochondrial GFP expression in gastric epithelium after ulcer induction (confocal microscopy, in vivo study); design: species or system Sprague Dawley rats; conditions: both methods, three doses
Experimental: (§1) The study was carried out on 90 male Sprague Dawley rats (180-220 g) randomly subdivided into 9 groups (10 animals per group): • Group 1 - intact rats (saline solution) • Group 2 - modeled ulcer + saline solution • Group 3 (6 subgroups) - modeled ulcer + H-Glu-Asp-Gly-OH • Group 4 - modeled ulcer + Klacid antibiotic
(§2) Ulcer was modeled by three-time administration (in 4 hours) in the rat stomach of cysteamine-HCL (Aldrich, Milwannee, WI) by means of a probe in the dose of 25 mg per 100 g of body weight. The ulcer, approximately 28 mm^2 in size, appeared at the boundary between antral and fundal segments of the stomach 12 hours after the last administration. Simultaneously with the first administration of cysteamine-HCL a Helicobacter pylori culture (Curtin Matheson Scientific Inc, strain Cag J117, 100 microbial cells) was administered in the rat stomach through the same probe.
A means on the basis of the pharmaceutical composition comprising the studied peptide H-Glu-Asp-Gly-OH was administered subcutaneously in the dose of 1 µg per kg of animal body weight (group 3a), 2,5 µg per kg of body weight (group 3b) and 10 µg per kg of body weight (group 3c) in 0,5 ml of saline solution daily, for 5 days from the occurrence of the stomach ulcer.
The means on the basis of the pharmaceutical composition comprising the studied peptide H-Glu-Asp-Gly-OH was administered intragastrically (through a probe) in the dose of 1 µg per kg of animal body weight (group 3d), 2,5 µg per kg of body weight (group 3e) and 10 µg per kg of body weight (group 3f) in 0,5 ml of saline solution daily, for 5 days from the occurrence of the stomach ulcer. […]
The status of isolated mitochondria was assessed using immunofluorescent confocal laser microscopy. […]
Confocal microscopy of mitochondria with optical density evaluation was carried out in an inverted confocal microscope Olympus Fluoview CM FV300-IX70 using an apochromatic lens 606 UPlan (Olympus). A 488 nm excitation wave of argon laser was used in each chamber to specify mito-GFP fluorescence that verifies the structure of mitochondria.

[2] = tested on: constitutive and inducible NO synthase (cNO and iNO respectively), HSP70, and NF-kappa b-p65 factor; test: Western blot of signal molecules from ulcer edge in the rat gastric ulcer model with Helicobacter pylori; type: in vivo, Sprague Dawley rats; conditions: 7th day from ulcer induction; doses of 1 µg to 10 µg per kg of body weight daily for 5 days
Experimental: as §1, §2
A means on the basis of the pharmaceutical composition comprising the studied peptide H-Glu-Asp-Gly-OH was administered subcutaneously in the dose of 1 µg per kg of animal body weight (group 3a), 2,5 µg per kg of body weight (group 3b) and 10 µg per kg of body weight (group 3c) in 0,5 ml of saline solution daily, for 5 days from the occurrence of the stomach ulcer. […]

Q: With “glutamyl-aspartyl-glycine [H-Glu-Asp-Gly-OH]” as the substance, how does the “mitochondrial GFP expression (optical density), 7th day” value ([1]; 7th day after ulcer induction, intact 3.12±0.22, ulcer 0.54±0.02) read?
A: 2.86±0.21 conv. units

Q: What about the “mitochondrial GFP expression (optical density), 15th day” value ([1]; 15th day after ulcer induction, intact 3.17±0.18, ulcer 0.87±0.04) of the same substance?
A: 3.03±0.16 conv. units

Q: And the “mitochondrial GFP expression (optical density), 21st day” value ([1]; 21st day after ulcer induction, intact 3.19±0.18, ulcer 1.67±0.09)?
A: 3.16±0.18 conv. units

Q: And the “level of production of signal molecules (both NO synthase forms, HSP70, NF kappa b-p65) in the mucous membrane of the edge of the ulcer” value [2]?
A: comparable with commonly normal indices
